The values below come from ChEMBL document CHEMBL1201862, “PubChem BioAssay data set” (2004).

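Values below derive from 48-hour exposures of cells grown in 96-well plates, with endpoints linearly interpolated between the two concentrations bracketing the appropriate inhibition level. GI50 is the concentration that inhibits growth by half.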 Calls of active or inactive are those of the source. Cut-off read from the data, not from the text of the source: active = GI50 up to about 1.1 µM and inactive = higher.

Holding throughout (test): NCI-60 cell line screen, 48 h
The subject of assay [1] is 786-0.
Assay [2] has as its system CAKI-1.
The test system of assay [3] is COLO 205.
In assay [4] the test system is HCT-15.
The subject of assay [5] is HOP-62.
In assay [6] the test system is IGROV-1.
Assay [7] relates to LOX IMVI.
Assay [8] deals with MOLT-4.
The test system of assay [9] is RPMI-8226.
For assay [10], the system named is RXF 393.
Assay [11] deals with SF-295.
The subject of assay [12] is SK-MEL-2.
For assay [13], the system named is SK-OV-3.
Assay [14] relates to TK-10.
For assay [15], the system named is UO-31.

In the case of `COC(=O)/C(=C\c1ccc(N(CCC#N)CCC#N)cc1)NC(=O)c1cc([N+](=O)[O-])ccc1Cl`, the GI50 was > 100 µM (inactive) in assay [1]; > 100 µM (inactive) in [2]; > 100 µM (inactive) in assay [3]; > 100 µM in assay [4]; > 100 µM (inactive) in assay [5]; > 100 µM (inactive) in assay [6]. The GI50 in assay [7], in [8], in assay [9], in assay [10], in assay [11] and in assay [12] was > 100 µM (inactive) in each case. Moreover, the GI50 in [13], in assay [14] and in assay [15] was > 100 µM (inactive) each time.
As to `Cc1cc2c(cc1C)[n+]([O-])c(C(=O)CC(=O)C(=O)Nc1c(C(C)C)cccc1C(C)C)c(C)[n+]2[O-]`, the GI50 in assay [1] was > 100 µM (inactive); in assay [2] it was > 100 µM (inactive); in assay [3] it was > 100 µM (inactive); in [4] it was > 100 µM; in assay [5], > 100 µM (inactive); in [6], > 100 µM (inactive). The GI50 in [7], in assay [8], in assay [9], in [10], in [11] and in assay [12] was > 100 µM (inactive) each time. In addition, the GI50 in [13], in assay [14] and in assay [15] was > 100 µM (inactive) in each case.
`O=C1C2C3C=CC(C2C(=O)N1CN1CCSCC1)C1C2C(=O)N(CN4CCSCC4)C(=O)C2C31` (stereo not drawn): the GI50 was > 52.4 µM (inactive) in assay [1]; > 100 µM (inactive) in [2]; 56.5 µM (inactive) in assay [3]; 34.8 µM in assay [4]; > 100 µM (inactive) in [5]; > 100 µM (inactive) in [6]. The GI50 in assay [7] is > 53.5 µM (inactive); in assay [8] it was > 78.5 µM (inactive); in assay [9], 25.5 µM (inactive); in assay [10] it was > 100 µM (inactive); in [11], > 100 µM (inactive); in [12] it was > 100 µM (inactive). For the same molecule, the GI50 in assay [13], in assay [14] and in assay [15] was > 100 µM (inactive) in each case.
Regarding `CC(=O)OC1C(COC(N)=O)OC(n2c(-c3ccc(C)cc3)cc(-c3ccccc3)c(C#N)c2=O)C(OC(C)=O)C1OC(C)=O` (stereo not drawn), the GI50 is > 100 µM (inactive) in [1]; > 100 µM (inactive) in assay [2]; > 100 µM (inactive) in assay [3]; > 100 µM in [4]; > 100 µM (inactive) in [5]; > 100 µM (inactive) in assay [6]. Besides, the GI50 in assay [7], in [8], in assay [9], in assay [10], in [11] and in [12] was > 100 µM (inactive) in each case. Further, the values for the GI50 in assay [13], in assay [14] and in assay [15] were > 100 µM (inactive), > 100 µM (inactive) and 71.9 µM (inactive), respectively.
For `CCCCCCNC(=O)CCN(C(=O)O)S(=O)(=O)c1ccc(NC(=O)c2ccccc2)cc1`, the GI50 in assay [1] was > 96.4 µM (inactive); in assay [2], > 100 µM (inactive); in assay [3] it was 24.8 µM (inactive); in [4], 22 µM; in [5] it was > 100 µM (inactive); in assay [6], > 100 µM (inactive). Further, the GI50 in assay [7] is 25.1 µM (inactive); in [8], > 42.9 µM (inactive); in assay [9], 26.4 µM (inactive); in [10], > 100 µM (inactive); in assay [11], > 100 µM (inactive); in assay [12], > 100 µM (inactive). Also, the GI50 in [13], in assay [14] and in [15] was > 100 µM (inactive) in each case.
As to `C=CCCCCCCCCCP(=O)(c1ccccc1)c1ccc2c(c1)OCCOCCOCCOCCO2` (stereo not drawn), the GI50 is 16.3 µM (inactive) in assay [1]; > 100 µM (inactive) in assay [2]; 15.9 µM (inactive) in [3]; 13.8 µM in [4]; 16.6 µM (inactive) in assay [5]; 16 µM (inactive) in assay [6]. Also, the GI50 in [7] is 15.3 µM (inactive); in assay [8] it was 9.75 µM (inactive); in assay [9], 11.7 µM (inactive); in assay [10], 14.2 µM (inactive); in [11], 15.2 µM (inactive); in assay [12], 18 µM (inactive). The GI50 was 20.2 µM (inactive) in assay [13], 18.4 µM (inactive) in assay [14] and 10.8 µM (inactive) in assay [15].
For `O=C(Cn1ccnc1[N+](=O)[O-])NCc1ccc(F)cc1`, the GI50 in assay [1] was > 100 µM (inactive); in assay [2], > 100 µM (inactive); in assay [3], > 100 µM (inactive); in assay [4] it was > 100 µM; in [5], > 100 µM (inactive); in assay [6], > 100 µM (inactive). The GI50 in assay [7], in assay [8], in [9], in assay [10], in [11] and in [12] was > 100 µM (inactive) in each case. Moreover, the GI50 in assay [13], in [14] and in assay [15] was > 100 µM (inactive) in each case.
Consider `CC1=NN(C(=O)Nc2ccc(Cl)cc2)C(=O)C2CCC(=O)N12` (stereo not drawn), for which the GI50 in assay [1] is 88.7 µM (inactive); in [2] it was 60.3 µM (inactive); in [3] it was > 100 µM (inactive); in [4] it was 1.76 µM; in [5], > 100 µM (inactive); in [6], > 100 µM (inactive). Moreover, the GI50 was 4.13 µM (inactive) in assay [7]; 53 µM (inactive) in assay [8]; 93.3 µM (inactive) in assay [9]; > 100 µM (inactive) in assay [10]; 48.3 µM (inactive) in assay [11]; > 100 µM (inactive) in assay [12]. The GI50 in assay [13] is 38.7 µM (inactive); in assay [14] it was > 100 µM (inactive); in assay [15], 61.2 µM (inactive).
Consider `CN(C)CC1CC/C(=C\c2ccc(Cl)c(Cl)c2)C1=O` (stereo not drawn), for which the GI50 was 11.7 µM (inactive) in assay [1]; 14.8 µM (inactive) in assay [2]; 32.9 µM (inactive) in assay [3]; 12.7 µM in [4]; > 58.2 µM (inactive) in assay [5]; > 50.4 µM (inactive) in assay [6]. Besides, the GI50 in [7] is 13.5 µM (inactive); in assay [8], 4.76 µM (inactive); in [9] it was 1.95 µM (inactive); in assay [10], > 45.4 µM (inactive); in assay [11], 48.6 µM (inactive); in assay [12] it was > 45.1 µM (inactive). Also, the GI50 in assay [13] is > 100 µM (inactive); in [14], 13.2 µM (inactive); in assay [15], > 40.6 µM (inactive).
On to `CCOC(=O)COS(=O)(=O)C(F)(F)F`, for which the GI50 is 35.4 µM (inactive) in assay [1]; > 100 µM (inactive) in [2]; 38 µM (inactive) in assay [3]; 18.5 µM in assay [4]; > 100 µM (inactive) in assay [5]; > 100 µM (inactive) in assay [6]. Further, the GI50 in assay [7] was 18.8 µM (inactive); in [8] it was > 100 µM (inactive); in assay [9] it was 23.9 µM (inactive); in [10] it was > 100 µM (inactive); in assay [11] it was > 100 µM (inactive); in [12], > 100 µM (inactive). Further, the GI50 in assay [13], in assay [14] and in assay [15] was > 100 µM (inactive) throughout.
Regarding `Cc1cc(N(CCC#N)CCC#N)ccc1/C=C(/NC(=O)/C=C/c1ccccc1)C(N)=O`, the GI50 is > 100 µM (inactive) in [1]; > 100 µM (inactive) in assay [2]; > 100 µM (inactive) in [3]; > 100 µM in assay [4]; > 100 µM (inactive) in assay [5]; > 100 µM (inactive) in assay [6]. In addition, the GI50 in [7] was 97.5 µM (inactive); in [8] it was > 100 µM (inactive); in assay [9], > 100 µM (inactive); in [10] it was 4.19 µM (inactive); in [11], > 100 µM (inactive); in [12], > 100 µM (inactive). The GI50 in assay [13], in assay [14] and in assay [15] was > 100 µM (inactive) each time.
As for `CCOc1ccc(NC(=O)C2=C(C)NC(C)=C(C(=O)Nc3ccc(OCC)cc3)C2c2ccc(O)c(OC)c2)cc1`, the GI50 in [1] was 48.9 µM (inactive); in [2] it was > 100 µM (inactive); in [3] it was 96.8 µM (inactive); in [5] it was 29.5 µM (inactive); in assay [6] it was > 100 µM (inactive); in [7] it was > 100 µM (inactive). For the same molecule, the GI50 in [8] was 28.1 µM (inactive); in assay [9] it was 28.6 µM (inactive); in assay [10], 28.9 µM (inactive); in [11], 54.7 µM (inactive); in assay [12], 64.6 µM (inactive); in [13] it was > 100 µM (inactive). Moreover, the GI50 in assay [14] was > 100 µM (inactive); in [15], 52.4 µM (inactive).
Turning to `OCC(O)C(O)C(O)c1nn(-c2ccccc2)c2nc3cc(Cl)c(Cl)cc3nc12` (stereo not drawn), the GI50 in [1] was 32 µM (inactive); in assay [2], 20 µM (inactive); in assay [3] it was 44.1 µM (inactive); in assay [5] it was 42.1 µM (inactive); in assay [6], 39.4 µM (inactive); in assay [7], 36.5 µM (inactive). Moreover, the GI50 in assay [8] was 24.5 µM (inactive); in assay [9], 25.4 µM (inactive); in [10], 19.9 µM (inactive); in [11], 56.5 µM (inactive); in assay [12], 33 µM (inactive); in assay [13], > 100 µM (inactive). In addition, the values for the GI50 in assay [14] and in assay [15] were 36.1 µM (inactive) and 37.2 µM (inactive), respectively.
